In US20260354380A1, “PYRAZOLO PESTICIDAL COMPOUNDS” (BASF SE, priority 2022, published 2026):

Tests used:
Assay type in all cases: in vivo
Aedes aegypti = assay: whole plant or invertebrate; conditions: 800 ppm; larvae; 2 days
Experimental: Example B1: Action on Yellow Fever Mosquito (Aedes aegypti)
For evaluating control of yellow fever mosquito (Aedes aegypti) the test unit consisted of 96-well-microtiter plates containing 200 μl of tap water per well and 5-15 freshly hatched A. aegypti larvae.
The active compounds or mixtures were formulated using a solution containing 75% (v/V) water and 25% (v/v) DMSO. Different concentrations of formulated compounds or mixtures were sprayed onto the insect diet at 2.5 μl, using a custom-built micro atomizer, at two replications. For experimental mixtures in these tests identical volumes of both mixing partners at the desired concentrations respectively, were mixed together.
After application, microtiter plates were incubated at 28±1 °C, 80±5% RH for 2 days. Larval mortality was then visually assessed.

Anthonomus grandis = assay: Action on Boll Weevil (Anthonomus grandis); conditions: 800 ppm; egg and larval mortality; 5 days
Experimental: Example B3: Action on Boll Weevil (Anthonomus grandis)
For evaluating control of boll weevil (Anthonomus grandis) the test unit consisted of 96-well-microtiter plates containing an insect diet and 5-10 A. grandis eggs.
The compounds were formulated using a solution containing 75% (v/v) water and 25% (v/v) DMSO. Different concentrations of formulated compounds were sprayed onto the insect diet at 5 μl, using a custom-built micro atomizer, at two replications.
After application, microtiter plates were incubated at about 25±1 °C and about 75±5% relative humidity for 5 days. Egg and larval mortality were then visually assessed.

Heliothis virescens = assay: Action on Tobacco Budworm (Heliothis virescens); conditions: 800 ppm; egg and larval mortality; 5 days
Experimental: Example B5: Action on Tobacco Budworm (Heliothis virescens)
For evaluating control of tobacco budworm (Heliothis virescens) the test unit consisted of 96-well-microtiter plates containing an insect diet and 15-25 H. virescens eggs.
The compounds were formulated using a solution containing 75% v/v water and 25% v/v DMSO. Different concentrations of formulated compounds were sprayed onto the insect diet at 10 μl, using a custom-built micro atomizer, at two replications.
After application, microtiter plates were incubated at about 28±1 °C and about 80±5% relative humidity for 5 days. Egg and larval mortality were then visually assessed.

Plutella xylostella = assay: Action on Diamond Back Moth (Plutella xylostella), cabbage leaf dip, 3rd instar larvae; conditions: 300 ppm; 3rd instar larvae; 72 hours after treatment
Experimental: Example B6: Action on Diamond Back Moth (Plutella xylostella)
The active compound is dissolved at the desired concentration in a mixture of 1:1 (v/v) distilled water:acetone. Surfactant (Kinetic® HV) is added at a rate of 0.01% (v/v). The test solution is prepared at the day of use.
Leaves of cabbage were dipped in test solution and air-dried. Treated leaves were placed in petri dishes lined with moist filter paper and inoculated with ten 3rd instar larvae. Mortality was recorded 72 hours after treatment. Feeding damages were also recorded using a scale of 0-100%.
(§1) Compounds disclosed in the document WO2021013561 were prepared according to procedures described therein and their pesticidal activities were determined by procedure analogues to the procedures as described above in examples B6 and B7.

Spodoptera eridania = assay: Action on Southern Armyworm (Spodoptera eridania), 2nd Instar Larvae; conditions: 300 ppm; 2nd instar larvae; 4 days after treatment
Experimental: Example B7: Action on Southern Armyworm (Spodoptera eridania), 2nd Instar Larvae
The active compounds were formulated by a Tecan liquid handler in 100% cyclohexanone as a 10,000 ppm solution supplied in tubes. The 10,000 ppm solution was serially diluted in 100% cyclohexanone to make interim solutions. These served as stock solutions for which final dilutions were made by the Tecan in 50% acetone: 50% water (v/v) into 10 or 20 ml glass vials. A nonionic surfactant (Kinetic®) was included in the solution at a volume of 0.01% (v/v). The vials were then inserted into an automated electrostatic sprayer equipped with an atomizing nozzle for application to plants/insects.
Lima bean plants (variety Sieva) were grown 2 plants to a pot and selected for treatment at the 1st true leaf stage. Test solutions were sprayed onto the foliage by an automated electrostatic plant sprayer equipped with an atomizing spray nozzle. The plants were dried in the sprayer fume hood and then removed from the sprayer. Each pot was placed into perforated plastic bags with a zip closure. About 10 to 11 armyworm larvae were placed into the bag and the bags zipped closed. Test plants were maintained in a growth room at about 25 °C and about 20-40% relative humidity for 4 days, avoiding direct exposure to fluorescent light (24 hour photoperiod) to prevent trapping of heat inside the bags. Mortality and reduced feeding were assessed 4 days after treatment, compared to untreated control plants.
as §1

Row | Structure (SMILES) | mortality in comparison with untreated controls (Aedes aegypti) | mortality in comparison with untreated controls (Anthonomus grandis) | mortality in comparison with untreated controls (Heliothis virescens) | mortality in comparison with untreated controls (Plutella xylostella) | mortality in comparison with untreated controls (Spodoptera eridania)
1 | Cc1ccc(C(C)C)c(N2C(=O)CSC2=NC(=O)Nc2ccc(-n3cc(NC(=O)c4ccc(C5CC5(F)F)cc4)c(C)n3)cc2)c1 (racemic) [Example C-65] | at least 50% | at least 75% | at least 75% | at least 75% | at least 75%
2 | Cc1ccc(C(C)C)c(N2C(=O)CSC2=NC(=O)Nc2ccc(-n3cc(NC(=O)c4ccc(C(F)F)cc4)c(C)n3)cc2)c1 [Example C-82] | at least 50% | at least 75% | at least 75% | at least 75% | at least 75%
3 | Cc1ccc(C(C)C)c(N2C(=O)CS/C2=N\C(=O)Nc2ccc(-n3nc(C)c(NC(=O)c4ccc(OC(F)(F)F)cc4)c3C)cc2)c1 [Example C-15] | at least 50% | at least 75% | at least 75% | at least 75% | at least 75%
4 | Cc1ccc(C(C)C)c(N2C(=O)CS/C2=N\C(=O)Nc2ccc(-n3cc(NC(=O)c4ccc(C#N)cc4Cl)c(C)n3)cc2)c1 [Example C-35] | at least 50% | at least 75% | at least 75% | at least 75% | at least 75%
5 | COc1cc(-n2cc(NC(=O)c3ccc(OC(F)(F)F)cc3)c(C)n2)ccc1NC(=O)/N=C1\SCC(=O)N1c1cc(C)ccc1C(C)C [Example C-14] | at least 50% | at least 75% | at least 75% | at least 75% | at least 75%
6 | Cc1ccc(C(C)C)c(N2C(=O)CS/C2=N\C(=O)Nc2ccc(-n3cc(NC(=O)c4ccc(OC(F)(F)F)cc4)c(C)n3)cc2C#N)c1 [Example C-13] | at least 50% | at least 75% | at least 75% | at least 75% | at least 75%
7 | Cc1ccc(C(C)C)c(N2C(=O)CSC2=NC(=O)Nc2ccc(-n3cc(NC(=O)c4ccncc4)c(C)n3)cc2)c1 [Example C-59] | at least 50% | at least 75% | at least 75% | at least 75% | at least 75%
8 | Cc1ccc(C(C)C)c(N2C(=O)CSC2=NC(=O)Nc2ccc(-n3cc(NC(=O)c4cc(Cl)cs4)c(C)n3)cc2)c1 [Example C-40] | at least 50% | at least 75% | at least 75% | at least 75% | at least 75%
9 | Cc1ccc(C(C)C)c(N2C(=O)CS/C2=N\C(=O)Nc2ccc(-n3cc(NC(=O)c4ccc(Br)cc4)c(C)n3)cc2)c1 [Example C-30] | at least 50% | at least 75% | at least 75% | at least 75% | at least 75%
10 | Cc1ccc(C(=O)Nc2cn(-c3ccc(NC(=O)N=C4SCC(=O)N4c4cc(C)ccc4C(C)C)cc3)nc2C)cc1 [Example C-49] | at least 50% | at least 75% | at least 75% | at least 75% | at least 75%
11 | Cc1nn(-c2ccc(NC(=O)N=C3SCC(=O)N3c3ccccc3C(C)C)cc2)cc1NC(=O)c1ccc(OC(F)(F)F)cc1 [Example C-8] | at least 50% | at least 75% | at least 75% | at least 75% | at least 75%
12 | Cc1ccc(C(C)C)c(N2C(=O)CS/C2=N\C(=O)Nc2ccc(-n3nc(C)c(NC(=O)c4ccc(OC(F)(F)F)cc4)c3C)cc2C2CC2)c1 [Example C-96] | at least 50% | at least 75% | at least 75% | at least 75% | at least 75%
13 | Cc1ccc(C(C)C)c(N2C(=O)CS/C2=N\C(=O)Nc2ccc(-n3cc(NC(=O)c4cccs4)c(C)n3)cc2)c1 [Example C-95] | at least 50% | at least 75% | at least 75% | at least 75% | at least 75%
14 | Cc1ccc(C(F)(F)F)c(N2C(=O)CS/C2=N\C(=O)Nc2ccc(-n3nc(C)c(NC(=O)c4ccc(OC(F)(F)F)cc4)c3C)cc2)c1 [Example C-16] | at least 50% | at least 75% | at least 75% | at least 75% | at least 75%
15 | Cc1ccc(C(C)C)c(N2C(=O)CSC2=NC(=O)Nc2ccc(-n3cc(NC(=O)c4nc(Cl)cs4)c(C)n3)cc2)c1 [Example C-42] | at least 50% | at least 75% | at least 75% | at least 75% | at least 75%
16 | Cc1ccc(C(C)C)c(N2C(=O)CS/C2=N\C(=O)Nc2ccc(-n3cc(NC(=O)c4ccc(F)c(Cl)c4)c(C)n3)cc2)c1 [Example C-28] | at least 50% | at least 75% | at least 75% | at least 75% | at least 75%
17 | Cc1ccc(C(F)(F)F)c(N2C(=O)CSC2=NC(=O)Nc2ccc(-n3cc(NC(=O)c4ccc(OC(F)(F)F)cc4)c(C)n3)cc2)c1 [Example C-12] | at least 50% | at least 75% | at least 75% | at least 75% | at least 75%
18 | C#Cc1ccc(C(=O)Nc2cn(-c3ccc(NC(=O)/N=C4\SCC(=O)N4c4cc(C)ccc4C(C)C)cc3)nc2C)cc1 [Example C-34] | at least 50% | at least 75% | at least 75% | at least 75% | at least 75%
